Data as given in patent US20240368181A1, “QUINOXALINE DERIVATIVES AND USES THEREOF” (Black Diamond Therapeutics, Inc., priority 2021, published 2024).

How the values were obtained:
Assay type in all cases: cell-based
[1] = system: SNU-16 (FGFR2-amplification) cells; experiment: cell proliferation assay (CellTiterGlo), SNU-16 cells; conditions: Homo sapiens, 72 hours
Summary of the method: (§1)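 IC50 for growth inhibition, normalized to DMSO-treated cells as viable. Cell number was estimated from ATP luminescence (CellTiterGlo) following incubation with compound at varying concentrations.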

[2] = system: UM-UC-14 (FGFR3-S249C) cells; experiment: cell proliferation assay (CellTiterGlo), UM-UC-14 cells; conditions: UMUC14, 72 h
Summary of the method: as §1

[3] = system: DMS-114 (FGFR1 overexpression) cells; experiment: cell proliferation assay (CellTiterGlo), DMS-114 cells; conditions: Homo sapiens, DMS-114, 72 h
Summary of the method: as §1

[4] = system: RT-112 (FGFR3-Tacc3 fusion) cells; experiment: cell proliferation assay (CellTiterGlo), RT-112 cells; conditions: Homo sapiens, RT-112, RT112 cells, 72 hours
Summary of the method: as §1

SMILES	IC50 [1] [nM]	IC50 [2] [nM]	IC50 [3] [nM]	IC50 [4] [nM]
Cc1nc2ccc(Oc3ccc4ncc(-c5cnn(CC6CCC(F)(F)C6)c5)nc4c3Cl)cc2[nH]1 (stereo not drawn) [Compound 286]	100 to 400	20 to 100	≥ 400	20 to 100
Cc1nc2ccc(Oc3ccc4ncc(-c5cnn(CC6CCNCC6)c5)nc4c3C)cc2[nH]1 [Compound 292]	100 to 400	20 to 100	≥ 400	100 to 400
Cc1nc2ccc(Oc3ccc4ncc(-c5cnn(C67CCN(CC6)C7)c5)nc4c3Cl)cc2[nH]1 [Compound 295]	≥ 400	≥ 400	≥ 400	≥ 400
C=C1COC(Cn2cc(-c3cnc4ccc(Oc5ccc6nc(C)[nH]c6c5)c(Cl)c4n3)cn2)OC1 [Compound 298]	100 to 400	20 to 100	≥ 400	20 to 100
Cc1nc2ccc(Oc3ccc4ncc(-c5cnn(CC6CC(F)(F)C6)c5)nc4c3C)cc2[nH]1 [Compound 302]	100 to 400	100 to 400	≥ 400	100 to 400
Cc1nc2ccc(Oc3ccc4ncc(-c5cnn(CCC6CCNCC6)c5)nc4c3Cl)cc2[nH]1 [Compound 304]	100 to 400	20 to 100	≥ 400	20 to 100
Cc1nc2ccc(Oc3ccc4ncc(-c5cnn(CC(=O)N6CCC(O)C6)c5)nc4c3Cl)cc2[nH]1 (stereo not drawn) [Compound 306]	100 to 400	100 to 400	≥ 400	20 to 100
Cc1nc2ccc(Oc3ccc4ncc(-c5cnn(C6CC(N7CC(O)C7)C6)c5)nc4c3Cl)cc2[nH]1 (stereo not drawn) [Compound 309]	20 to 100	20 to 100	100 to 400	20 to 100
Cc1nc2ccc(Oc3ccc4ncc(-c5cnn(CC6CN(CC#N)C6)c5)nc4c3Cl)cc2[nH]1 [Compound 310]	20 to 100	20 to 100	≥ 400	20 to 100
Clc1c(Oc2ccn3cncc3c2)ccc2ncc(-c3cnn(CC4CCN(C5COC5)CC4)c3)nc12 [Compound 312]	≥ 400	≥ 400	≥ 400	≥ 400
CNC(=O)N1CC2CC1CC2Cn1cc(-c2cnc3ccc(Oc4ccc5nc(C)[nH]c5c4)c(Cl)c3n2)cn1 (stereo not drawn) [Compound 313]	20 to 100	20 to 100	≥ 400	20 to 100
Cc1nc2ccc(Oc3ccc4ncc(-c5cnn(CC6CN(CC(=O)N7CC(O)C7)C6)c5)nc4c3Cl)cc2[nH]1 [Compound 314]	20 to 100	100 to 400	100 to 400	20 to 100
CNC(=O)CN1CC(Cn2cc(-c3cnc4ccc(Oc5ccc6nc(C)[nH]c6c5)c(Cl)c4n3)cn2)C1 [Compound 315]	20 to 100	20 to 100	≥ 400	20 to 100
COCCN1CCC(n2cc(-c3cnc4ccc(Oc5ccc6nc(C)[nH]c6c5)c(Cl)c4n3)cn2)CC1 [Compound 316]	20 to 100	20 to 100	≥ 400	20 to 100
Cc1nc2ccc(Oc3ccc4ncc(-c5cnn(CC(=O)N6CC(O)C6)c5)nc4c3Cl)cc2[nH]1 [Compound 317]	20 to 100	≥ 400	≥ 400	100 to 400
Cc1nc2ccc(Oc3ccc4ncc(-c5cnn(C6(CCO)CCNCC6)c5)nc4c3Cl)cc2[nH]1 [Compound 318]	≥ 400	≥ 400	≥ 400	≥ 400
Cc1nc2ccc(Oc3ccc4ncc(-c5cnn(CC(=O)N6CCC6)c5)nc4c3Cl)cc2[nH]1 [Compound 319]	20 to 100	20 to 100	≥ 400	20 to 100
Cc1nc2ccc(Oc3ccc4ncc(-c5cnn(CC6CN(CC(=O)N7CCC7)C6)c5)nc4c3Cl)cc2[nH]1 [Compound 320]	20 to 100	100 to 400	≥ 400	20 to 100
CNC(=O)N1CCC(n2cc(-c3cnc4ccc(Oc5ccc6nc(C)[nH]c6c5)c(Cl)c4n3)cn2)CC1 [Compound 321]	20 to 100	20 to 100	≥ 400	20 to 100
CNC(=O)CN1CCC(n2cc(-c3cnc4ccc(Oc5ccc6nc(C)[nH]c6c5)c(Cl)c4n3)cn2)CC1 [Compound 322]	20 to 100	20 to 100	≥ 400	< 20

Second part, led by results:

IC50 [1] [nM]	SMILES	IC50 [2] [nM]	IC50 [3] [nM]	IC50 [4] [nM]
< 20	Cc1nc2ccc(Oc3ccc4ncc(-c5cnn(CCC6CCS(=O)(=O)C6)c5)nc4c3Br)cc2[nH]1 (stereo not drawn) [Compound 278]	< 20	≥ 400	< 20
< 20	Cc1nc2ccc(Oc3ccc4ncc(-c5cnn(CC6CCS(=O)(=O)CC6)c5)nc4c3Br)cc2[nH]1 [Compound 279]	< 20	≥ 400	< 20
20 to 100	Cc1nc2ccc(Oc3ccc4ncc(-c5cnn(CC(C)(C)O)c5)nc4c3Cl)cc2[nH]1 [Compound 280]	20 to 100	≥ 400	20 to 100
20 to 100	COC1CC(Cn2cc(-c3cnc4ccc(Oc5ccc6nc(C)[nH]c6c5)c(Cl)c4n3)cn2)C1 (stereo not drawn) [Compound 281]	20 to 100	≥ 400	20 to 100
20 to 100	Cc1nc2ccc(Oc3ccc4ncc(-c5cnn(C(C)(C)CC(N)=O)c5)nc4c3Cl)cc2[nH]1 [Compound 282]	100 to 400	≥ 400	20 to 100
20 to 100	Cc1nc2ccc(Oc3ccc4ncc(-c5cnn(CC(=O)N6CC[C@@H](F)C6)c5)nc4c3Cl)cc2[nH]1 [Compound 283]	20 to 100	≥ 400	20 to 100
20 to 100	Cc1nc2ccc(Oc3ccc4ncc(-c5cnn(CC(=O)N6CC[C@H](F)C6)c5)nc4c3Cl)cc2[nH]1 [Compound 284]	20 to 100	≥ 400	20 to 100
20 to 100	Cc1nc2ccc(Oc3ccc4ncc(-c5cnn(CC(=O)N6CCOCC6)c5)nc4c3Cl)cc2[nH]1 [Compound 285]	20 to 100	≥ 400	20 to 100
20 to 100	Cc1nc2ccc(Oc3ccc4ncc(-c5cnn(CC(=O)N6CCC(F)(F)C6)c5)nc4c3Cl)cc2[nH]1 [Compound 287]	20 to 100	≥ 400	20 to 100
20 to 100	Cc1nc2ccc(Oc3ccc4ncc(-c5cnn([C@H]6CCNC[C@@H]6F)c5)nc4c3C)cc2[nH]1 [Compound 288]	20 to 100	≥ 400	20 to 100
20 to 100	Cc1nc2ccc(Oc3ccc4ncc(-c5cnn(C6CCNCC6)c5)nc4c3C3CC3)cc2[nH]1 [Compound 289]	20 to 100	100 to 400	20 to 100
20 to 100	Cc1nc2ccc(Oc3ccc4ncc(-c5cnn(CC(=O)N6CCC(F)C6)c5)nc4c3Cl)cc2[nH]1 (stereo not drawn) [Compound 290]	20 to 100	≥ 400	20 to 100
20 to 100	Cc1nc2ccc(Oc3ccc4ncc(-c5cnn(CC6CC(N7CCC7)C6)c5)nc4c3Cl)cc2[nH]1 (stereo not drawn) [Compound 291]	20 to 100	≥ 400	20 to 100
20 to 100	Cc1nc2ccc(Oc3ccc4ncc(-c5cnn(C6CCNCC6)c5)nc4c3C)cc2[nH]1 [Compound 293]	20 to 100	100 to 400	20 to 100
20 to 100	Cc1nc2ccc(Oc3ccc4ncc(-c5cnn(CCC6CCN(C7COC7)CC6)c5)nc4c3Cl)cc2[nH]1 [Compound 294]	< 20	100 to 400	20 to 100
20 to 100	Cc1nc2ccc(Oc3ccc4ncc(-c5cnn(CCC6CCN(CC(F)(F)F)CC6)c5)nc4c3Cl)cc2[nH]1 [Compound 296]	20 to 100	≥ 400	20 to 100
20 to 100	Cc1nc2ccc(Oc3ccc4ncc(-c5cnn(CC6CC(N(C)C)C6)c5)nc4c3Cl)cc2[nH]1 (stereo not drawn) [Compound 297]	20 to 100	≥ 400	20 to 100
20 to 100	Cc1nc2ccc(Oc3ccc4ncc(-c5cnn(CC6OCC7(COC7)CO6)c5)nc4c3Cl)cc2[nH]1 [Compound 299]	20 to 100	≥ 400	20 to 100
20 to 100	CCC(=O)N1CCC(CCn2cc(-c3cnc4ccc(Oc5ccc6nc(C)[nH]c6c5)c(Cl)c4n3)cn2)CC1 [Compound 300]	< 20	≥ 400	20 to 100
< 20	Cc1nc2ccc(Oc3ccc4ncc(-c5cnn(C6CCN(CCO)CC6)c5)nc4c3Cl)cc2[nH]1 [Compound 301]	20 to 100	≥ 400	< 20
20 to 100	Cc1nc2ccc(Oc3ccc4ncc(-c5cnn(C6CCN(CC(F)(F)F)CC6)c5)nc4c3Cl)cc2[nH]1 [Compound 303]	20 to 100	≥ 400	20 to 100
< 20	Cc1nc2ccc(Oc3ccc4ncc(-c5cnn(CCC6CCN(C)CC6)c5)nc4c3Cl)cc2[nH]1 [Compound 305]	< 20	100 to 400	< 20
< 20	Cc1nc2ccc(Oc3ccc4ncc(-c5cnn(C[C@@H]6CCS(=O)(=O)C6)c5)nc4c3Cl)cc2[nH]1 [Compound 307]	20 to 100	100 to 400	< 20
20 to 100	Cc1nc2ccc(Oc3ccc4ncc(-c5cnn(CC6CC(=O)C6)c5)nc4c3Cl)cc2[nH]1 [Compound 308]	20 to 100	≥ 400	20 to 100
< 20	Cc1nc2ccc(Oc3ccc4ncc(-c5cnn(C[C@H]6CCS(=O)(=O)C6)c5)nc4c3Cl)cc2[nH]1 [Compound 311]	20 to 100	100 to 400	< 20
